Activity calls are given as the source filed them. No cut-off for these calls is given here.
Experiments:
Mu-type opioid receptor [1] = biological target: Mu-type opioid receptor (Rattus norvegicus, UniProt P33535); experiment: Displacement of [3H]-DAMGO from Wistar rat mu opioid receptor incubated for 1 hr by liquid scintillation counting method
Mus musculus [2] = experiment: Antinociceptive activity in kunming mouse models of acetic-acid-induced writhing assessed as inhibition of writhing numbers at 0.04 nmol, icv pretreated for 5 mins followed by acetic-acid treatment and measured for 20 mins relative to control; format: functional; parameters: scale not given: the % may be the effect or the level left
[3] = Neurotoxicity in kunming mouse models assessed as effect in locomotor activity at 10 mg/kg,iv measured up to 60 mins by rotarod test; format: toxicity, organism-based; settings: in vivo, 1 h
Mus musculus [4] = experiment: Antinociceptive activity in kunming mouse models of formalin-induced hyperalgesia assessed as reduction in pain response of paw licking inflammatory phase at 0.04 nmol, icv measured during phase 1 at 0 to 5 mins relative to control; format: functional; parameters: scale not given: the % may be the effect or the level left
Mus musculus [5] = experiment: Antinociceptive activity in iv dosed kunming mouse models of formalin-induced hyperalgesia assessed as reduction in pain response of paw licking measured up to 60 mins; format: functional, organism-based
Mus musculus [6] = experiment: Antinociceptive activity in kunming mouse models assessed as maximum possible effect at 4 nmol, icv measured from 5 to 60 mins by warm water tail-flick assay relative to control; format: functional
Mus musculus [7] = experiment: Antinociceptive activity in kunming mouse models of formalin-induced hyperalgesia assessed as reduction in time spent on paw shaking inflammatory phase at 0.04 nmol, icv measured during phase 1 at 0 to 5 mins relative to control; format: functional; parameters: scale not given: the % may be the effect or the level left
[8] = Half life in Kunming mouse brain homogenate at 10^-2 mol/L by RP-HPLC analysis; format: ADME, tissue-based
Mus musculus [9] = experiment: Antinociceptive activity in kunming mouse models assessed as effective dose after iv administration by warm water tail-flick assay; format: functional
Mu-type opioid receptor [10] = biological target: T1, Mu-type opioid receptor (Homo sapiens, UniProt P35372); experiment: Agonist activity at mu opioid receptor (unknown origin) expressed in human HEK293 cells assessed as […] in cAMP accumulation using [3H]-cAMP as substrate measured after 30mins by liquid scintillation counting method; format: functional, cell-based
Mus musculus [11] = experiment: Antinociceptive activity in icv administered kunming mouse models of formalin-induced hyperalgesia assessed reduction in time spent on paw biting during inflammatory phase 2 at 15 to 30 mins; format: functional; parameters: scale not given: the % may be the effect or the level left
Mus musculus [12] = experiment: Antinociceptive activity in icv administered kunming mouse models of formalin-induced hyperalgesia assessed reduction in time spent on paw shaking during inflammatory phase 2 at 15 to 30 mins; format: functional; parameters: scale not given: the % may be the effect or the level left
Mus musculus [13] = experiment: Antinociceptive activity in kunming mouse models of formalin-induced hyperalgesia assessed as reduction in time spent on paw shaking inflammatory phase at 4 nmol, icv measured during phase 2 at 15 to 30 mins relative to control; format: functional; parameters: scale not given: the % may be the effect or the level left
Mus musculus [14] = experiment: Antinociceptive activity in kunming mouse models of formalin-induced hyperalgesia assessed as reduction in time spent on paw biting inflammatory phase at 4 nmol, icv measured during phase 2 at 15 to 30 mins relative to control; format: functional; parameters: scale not given: the % may be the effect or the level left
Mus musculus [15] = experiment: Antinociceptive activity in kunming mouse models assessed as maximum possible effect at 0.4 nmol, icv measured from 5 to 60 mins by warm water tail-flick assay relative to control; format: functional
Mus musculus [16] = experiment: Antinociceptive activity in kunming mouse models of formalin-induced hyperalgesia assessed as reduction in time spent on paw biting inflammatory phase at 4 nmol, icv measured during phase 1 at 0 to 5 mins relative to control; format: functional; parameters: scale not given: the % may be the effect or the level left
Mus musculus [17] = experiment: Antinociceptive activity in kunming mouse models of formalin-induced hyperalgesia assessed as reduction in pain response of paw licking inflammatory phase at 4 nmol, icv measured during phase 1 at 0 to 5 mins relative to control; format: functional; parameters: scale not given: the % may be the effect or the level left
Mus musculus [18] = experiment: Antinociceptive activity in kunming mouse models of formalin-induced hyperalgesia assessed as reduction in time spent on paw biting inflammatory phase at 0.04 nmol, icv measured during phase 1 at 0 to 5 mins relative to control; format: functional; parameters: scale not given: the % may be the effect or the level left
Mus musculus [19] = experiment: Antinociceptive activity in kunming mouse models assessed as maximum possible effect at 10 mg/kg, iv measured after 5 to 60 mins co-treated with naloxone by warm water tail-flick assay; format: functional, organism-based
Mus musculus [20] = experiment: Antinociceptive activity in kunming mouse models assessed as effective dose after icv administration measured from 5 to 60 mins by warm water tail-flick assay; format: functional
Mus musculus [21] = experiment: Antinociceptive activity in icv administered kunming mouse models of formalin-induced hyperalgesia assessed reduction in pain response of paw licking during inflammatory phase 2 at 15 to 30 mins; format: functional, organism-based
Mus musculus [22] = experiment: Antinociceptive activity in kunming mouse models of acetic-acid-induced writhing assessed as inhibition of writhing numbers at 3 mg/kg, iv pretreated for 5 mins followed by acetic-acid treatment and measured for 20 mins; format: functional, organism-based
[23] = biological target: Delta-type opioid receptor (Rattus norvegicus, UniProt P33533); experiment: Displacement of [3H]-DPDPE from Wistar rat delta opioid receptor incubated for 3 hrs by liquid scintillation counting method
Mus musculus [24] = experiment: Antinociceptive activity in kunming mouse models assessed as maximum possible effect at 3 mg/kg, iv measured after 5 to 60 mins by warm water tail-flick assay; format: functional
[25] = Toxicity in kunming mouse assessed as reduction in fecal dry weight at 1 to 10 mg/kg, iv after 1 hr; format: organism-based; settings: in vivo
[26] = Half life in Kunming mouse serum at 10^-2 mol/L by RP-HPLC analysis; format: ADME, cell-free
Mus musculus [27] = experiment: Antinociceptive activity in kunming mouse models of formalin-induced hyperalgesia assessed as reduction in pain response of paw licking inflammatory phase at 4 nmol, icv measured during phase 2 at 15 to 30 mins relative to control; format: functional; parameters: scale not given: the % may be the effect or the level left
Mu-type opioid receptor [28] = biological target: T1, Mu-type opioid receptor; experiment: Agonist activity at mu opioid receptor (unknown origin) expressed in human HEK293 cells assessed as […] in cAMP accumulation using [3H]-cAMP as substrate measured after 30mins by liquid scintillation counting method relative to control; format: functional, cell-based
Mus musculus [29] = experiment: Antinociceptive activity in kunming mouse models of formalin-induced hyperalgesia assessed as reduction in time spent on paw shaking inflammatory phase at 4 nmol, icv measured during phase 1 at 0 to 5 mins relative to control; format: functional; parameters: scale not given: the % may be the effect or the level left
[30] = Toxicity in kunming mouse assessed as reduction in number of fecal pellet at 1 to 10 mg/kg, iv after 1 hr; format: organism-based; settings: in vivo

Chain of Mu-type opioid receptor (Rattus norvegicus, UniProt P33535) (P33535 whole entry): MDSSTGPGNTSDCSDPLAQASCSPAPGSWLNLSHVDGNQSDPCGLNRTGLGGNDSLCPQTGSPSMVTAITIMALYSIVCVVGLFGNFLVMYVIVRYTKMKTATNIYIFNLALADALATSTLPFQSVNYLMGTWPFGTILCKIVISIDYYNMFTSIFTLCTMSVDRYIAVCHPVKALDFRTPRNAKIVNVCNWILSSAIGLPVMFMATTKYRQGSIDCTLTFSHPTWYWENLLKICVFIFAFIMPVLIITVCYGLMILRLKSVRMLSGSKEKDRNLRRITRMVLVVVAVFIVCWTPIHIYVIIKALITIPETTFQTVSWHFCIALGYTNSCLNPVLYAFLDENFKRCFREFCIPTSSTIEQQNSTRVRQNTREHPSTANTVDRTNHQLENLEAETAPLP
T1 sequence (P35372 whole entry): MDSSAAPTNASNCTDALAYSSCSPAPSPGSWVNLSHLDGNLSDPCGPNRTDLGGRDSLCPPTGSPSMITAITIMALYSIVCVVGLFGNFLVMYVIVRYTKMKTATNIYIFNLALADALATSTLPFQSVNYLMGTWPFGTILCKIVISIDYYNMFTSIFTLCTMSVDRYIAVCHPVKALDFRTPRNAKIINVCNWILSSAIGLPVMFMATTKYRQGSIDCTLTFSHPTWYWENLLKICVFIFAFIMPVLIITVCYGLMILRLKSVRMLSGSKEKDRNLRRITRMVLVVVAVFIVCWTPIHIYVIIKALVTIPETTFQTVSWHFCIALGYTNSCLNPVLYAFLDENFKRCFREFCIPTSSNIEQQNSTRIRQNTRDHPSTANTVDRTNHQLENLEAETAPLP
Chain of Delta-type opioid receptor (P33533 whole entry): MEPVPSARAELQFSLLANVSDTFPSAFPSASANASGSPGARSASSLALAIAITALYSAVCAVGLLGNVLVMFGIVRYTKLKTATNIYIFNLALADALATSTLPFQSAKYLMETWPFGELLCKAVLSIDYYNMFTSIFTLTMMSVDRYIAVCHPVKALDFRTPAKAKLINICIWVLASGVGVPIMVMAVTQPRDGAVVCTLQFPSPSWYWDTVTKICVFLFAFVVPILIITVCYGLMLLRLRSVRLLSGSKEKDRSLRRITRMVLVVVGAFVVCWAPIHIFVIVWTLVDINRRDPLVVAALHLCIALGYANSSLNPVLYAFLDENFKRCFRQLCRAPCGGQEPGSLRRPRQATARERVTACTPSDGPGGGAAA

Question: With `C=C(C(N)=O)[C@@H](NC(=O)[C@H](Cc1ccccc1)NC(=O)[C@@H](CCCNC(N)=O)NC(=O)[C@@H](N)Cc1ccc(O)cc1)c1ccco1` as the compound, how does the Ki (Mu-type opioid receptor [1]) read?
Answer: 8.72 nM

Question: What about the Activity (Mus musculus [2]) of the same compound?
Answer: 100%

Question: And the Activity [3]?
Answer: Non-Toxic

Question: What about the Activity (Mus musculus [4]) of the same compound?
Answer: 100%

Question: What about the Activity (Mus musculus [5]) of the same compound?
Answer: Dose-dependent effect

Question: And the Activity (Mus musculus [6])?
Answer: 100%

Question: What about the Activity (Mus musculus [7]) of the same compound?
Answer: 100%

Question: And the half-life [8]?
Answer: > 5 h

Question: What about the ED50 (Mus musculus [9]) of the same compound?
Answer: 3.84 nmol

Question: And the EC50 (Mu-type opioid receptor [10])?
Answer: 128 nM

Question: And the Activity (Mus musculus [11])?
Answer: 100%

Question: What about the Activity (Mus musculus [12]) of the same compound?
Answer: 100%

Question: And the Activity (Mus musculus [13])?
Answer: 100%

Question: And the Activity (Mus musculus [14])?
Answer: 100%

Question: And the MPE (Mus musculus [15])?
Answer: 84%

Question: What about the Activity (Mus musculus [16]) of the same compound?
Answer: 100%

Question: And the Activity (Mus musculus [17])?
Answer: 100%

Question: What about the Activity (Mus musculus [18]) of the same compound?
Answer: 100%

Question: And the Activity (Mus musculus [19])?
Answer: inactive

Question: What about the ED50 (Mus musculus [20]) of the same compound?
Answer: 0.043 nmol

Question: And the Activity (Mus musculus [21])?
Answer: Dose-dependent effect

Question: And the Activity (Mus musculus [22])?
Answer: Active

Question: And the Ki [23]?
Answer: > 10000 nM

Question: What about the MPE (Mus musculus [24]) of the same compound?
Answer: 34.8%

Question: What about the Activity [25] of the same compound?
Answer: Toxic

Question: And the half-life [26]?
Answer: > 5 h

Question: What about the Activity (Mus musculus [27]) of the same compound?
Answer: 100%

Question: What about the Emax (Mu-type opioid receptor [28]) of the same compound?
Answer: 76.7%

Question: What about the Activity (Mus musculus [29]) of the same compound?
Answer: 100%

Question: And the Activity [30]?
Answer: Toxic

Question: For `NC(=O)[C@H](Cc1ccccc1)NC(=O)[C@H](Cc1c[nH]c2ccccc12)NC(=O)[C@@H]1CCCN1C(=O)[C@@H](N)Cc1ccc(O)cc1` [ENDOMORPHIN-1], which Activity (Mus musculus [6]) is on record?
Answer: 100%

Question: What about the MPE (Mus musculus [15]) of the same compound?
Answer: 42.1%

Question: With `C=C(C(N)=O)[C@@H](NC(=O)[C@H](Cc1ccccc1)NC(=O)[C@@H](CCCNC(=N)N)NC(=O)[C@@H](N)Cc1ccc(O)cc1)c1ccco1` as the compound, how does the Ki (Mu-type opioid receptor [1]) read?
Answer: 19.2 nM

Question: What about the Activity (Mus musculus [6]) of the same compound?
Answer: 100%

Question: What about the half-life [8] of the same compound?
Answer: > 5 h

Question: And the EC50 (Mu-type opioid receptor [10])?
Answer: 370 nM

Question: What about the MPE (Mus musculus [15]) of the same compound?
Answer: 86.9%

Question: And the ED50 (Mus musculus [20])?
Answer: 0.054 nmol

Question: And the Ki [23]?
Answer: 922 nM

Question: And the half-life [26]?
Answer: > 5 h

Question: What about the Emax (Mu-type opioid receptor [28]) of the same compound?
Answer: 74.2%

Question: Which results are given for `C=C(C(N)=O)[C@@H](NC(=O)[C@H](Cc1c[nH]c2ccccc12)NC(=O)[C@@H](CCCCNC(=N)N)NC(=O)[C@@H](N)Cc1ccc(O)cc1)c1ccco1`?
Answer: Ki (Mu-type opioid receptor [1]): 405 nM; EC50 (Mu-type opioid receptor [10]): 341 nM; Ki [23]: > 10000 nM; Emax (Mu-type opioid receptor [28]): 76.5%

Question: What does the source list for `C=C(C(N)=O)[C@@H](NC(=O)[C@H](Cc1c[nH]c2ccccc12)NC(=O)[C@@H](CCN)NC(=O)[C@@H](N)Cc1ccc(O)cc1)c1ccco1`?
Answer: Ki (Mu-type opioid receptor [1]): 32.4 nM; EC50 (Mu-type opioid receptor [10]): 161 nM; Ki [23]: > 10000 nM; Emax (Mu-type opioid receptor [28]): 75.5%

Question: Which results are given for `C=C(C(N)=O)[C@@H](NC(=O)[C@H](Cc1c[nH]c2ccccc12)NC(=O)[C@@H](CCCNC(N)=O)NC(=O)[C@@H](N)Cc1ccc(O)cc1)c1ccco1`?
Answer: Ki (Mu-type opioid receptor [1]): 5.82 nM; Activity (Mus musculus [2]): 100%; Activity [3]: Non-Toxic; Activity (Mus musculus [4]): 100%; Activity (Mus musculus [5]): Dose-dependent effect; Activity (Mus musculus [6]): 100%; Activity (Mus musculus [7]): 100%; half-life [8]: > 5 h; ED50 (Mus musculus [9]): 2.59 nmol; EC50 (Mu-type opioid receptor [10]): 164 nM; Activity (Mus musculus [11]): 100%; Activity (Mus musculus [12]): 100%; Activity (Mus musculus [13]): 100%; Activity (Mus musculus [14]): 100%; MPE (Mus musculus [15]): 100%; Activity (Mus musculus [16]): 100%; Activity (Mus musculus [17]): 100%; Activity (Mus musculus [18]): 100%; Activity (Mus musculus [19]): inactive; ED50 (Mus musculus [20]): 0.037 nmol; Activity (Mus musculus [21]): Dose-dependent effect; Activity (Mus musculus [22]): Active; Ki [23]: > 10000 nM; MPE (Mus musculus [24]): 51.2%; Activity [25]: Toxic; half-life [26]: > 5 h; Activity (Mus musculus [27]): 100%; Emax (Mu-type opioid receptor [28]): 78.9%; Activity (Mus musculus [29]): 100%; Activity [30]: Toxic

Question: With `NC(=O)[C@H](Cc1ccccc1)NC(=O)[C@H](Cc1ccccc1)NC(=O)[C@@H]1CCCN1C(=O)[C@@H](N)Cc1ccc(O)cc1` [ENDOMORPHIN 2] as the compound, how does the Activity (Mus musculus [6]) read?
Answer: 100%

Question: And the half-life [8]?
Answer: 0.207 h

Question: What about the ED50 (Mus musculus [20]) of the same compound?
Answer: 0.96 nmol

Question: And the half-life [26]?
Answer: 0.212 h

Question: What about the Emax (Mu-type opioid receptor [28]) of the same compound?
Answer: 66.5%

Question: What does the source list for `C=C(C(N)=O)[C@@H](NC(=O)[C@H](Cc1c[nH]c2ccccc12)NC(=O)[C@@H](CCC)NC(=O)[C@@H](N)Cc1ccc(O)cc1)c1ccco1`?
Answer: Ki (Mu-type opioid receptor [1]): 34.4 nM; EC50 (Mu-type opioid receptor [10]): 337 nM; Ki [23]: 2660 nM; Emax (Mu-type opioid receptor [28]): 67.6%

Question: What does the source list for `C=C(C(N)=O)[C@@H](NC(=O)[C@H](Cc1c[nH]c2ccccc12)NC(=O)[C@@H](CN)NC(=O)[C@@H](N)Cc1ccc(O)cc1)c1ccco1`?
Answer: Ki (Mu-type opioid receptor [1]): 5.47 nM; EC50 (Mu-type opioid receptor [10]): 192 nM; Ki [23]: > 10000 nM; Emax (Mu-type opioid receptor [28]): 81.5%
